From the NIST ThermoML archive (doi:10.1007/s10765-009-0581-7)
± gives the expanded uncertainty stated by the source.

How the values were obtained:
[1] = for surface tension liquid-gas: Ring tensiometer; for mass density: 101 kPa, Liquid
[2] = xn = mol fraction of the nth substance listed; conditions: x2 = 0; for surface tension liquid-gas: Ring tensiometer; for mass density: 101 kPa, Liquid

Row | Compound | surface tension liquid-gas ([1]; 278.15 K) | mass density ([1]; 278.15 K) | surface tension liquid-gas ([1]; 283.15 K) | mass density ([1]; 283.15 K) | surface tension liquid-gas ([1]; 288.15 K) | mass density ([1]; 288.15 K) | surface tension liquid-gas ([1]; 293.15 K) | mass density ([1]; 293.15 K) | surface tension liquid-gas ([1]; 298.15 K) | mass density ([1]; 298.15 K) | surface tension liquid-gas ([1]; 303.15 K) | mass density ([1]; 303.15 K) | surface tension liquid-gas ([1]; 308.15 K) | mass density ([1]; 308.15 K) | surface tension liquid-gas ([1]; 313.15 K) | mass density ([1]; 313.15 K) | also measured
1 | CC#N [acetonitrile] | 30.5 ± 0.5 mN/m | 793.3 ± 1.9 kg/m3 | 30.1 ± 0.5 mN/m | 788.8 ± 1.9 kg/m3 | 29.7 ± 0.5 mN/m | 784.3 ± 2 kg/m3 | 29.3 ± 0.5 mN/m | 778.3 ± 2 kg/m3 | 28.9 ± 0.5 mN/m | 776.75 ± 2 kg/m3 | 28.5 ± 0.4 mN/m | 771.5 ± 2 kg/m3 | 28.1 ± 0.4 mN/m | 766.3 ± 2.1 kg/m3 | 27.7 ± 0.4 mN/m | 761 ± 2.1 kg/m3 | 
2 | CCCO [propan-1-ol] | 24.9 ± 0.4 mN/m | 816.3 ± 1.8 kg/m3 | 24.5 ± 0.4 mN/m | 812.4 ± 1.8 kg/m3 | 24.1 ± 0.4 mN/m | 808.6 ± 1.8 kg/m3 | 23.7 ± 0.4 mN/m | 803.61 ± 1.9 kg/m3 | 23.3 ± 0.4 mN/m | 799.58 ± 1.9 kg/m3 | 22.9 ± 0.4 mN/m | 795.48 ± 1.9 kg/m3 | 22.5 ± 0.4 mN/m | 792.8 ± 1.9 kg/m3 | 22.2 ± 0.4 mN/m | 787.02 ± 1.9 kg/m3 | 
3 | CCCO [propan-1-ol] + CC#N |  |  |  |  |  |  |  |  |  |  |  |  |  |  |  |  | surface tension liquid-gas ([2]; 278.15 K): 24.9 ± 0.4 mN/m; mass density ([2]; 278.15 K): 816.3 ± 1.8 kg/m3; surface tension liquid-gas ([2]; 283.15 K): 24.5 ± 0.4 mN/m; mass density ([2]; 283.15 K): 812.4 ± 1.8 kg/m3; surface tension liquid-gas ([2]; 288.15 K): 24.1 ± 0.4 mN/m; mass density ([2]; 288.15 K): 808.6 ± 1.8 kg/m3; surface tension liquid-gas ([2]; 293.15 K): 23.7 ± 0.4 mN/m; mass density ([2]; 293.15 K): 803.61 ± 1.9 kg/m3; surface tension liquid-gas ([2]; 298.15 K): 23.3 ± 0.4 mN/m; mass density ([2]; 298.15 K): 799.58 ± 1.9 kg/m3; surface tension liquid-gas ([2]; 303.15 K): 22.9 ± 0.4 mN/m; mass density ([2]; 303.15 K): 795.48 ± 1.9 kg/m3; surface tension liquid-gas ([2]; 308.15 K): 22.5 ± 0.4 mN/m; mass density ([2]; 308.15 K): 792.8 ± 1.9 kg/m3; surface tension liquid-gas ([2]; 313.15 K): 22.2 ± 0.4 mN/m; mass density ([2]; 313.15 K): 787.02 ± 1.9 kg/m3
